≈ marks a conversion by molar mass, not a printed value. Like-named read-outs stand apart in the source and are kept apart here.
Assays:
Assay in all cases: MIC, agar dilution
Type in all cases: cell-based
E. coli Juhl A15119 = settings: Escherichia coli, JUHLA15119; E. coli Juhl A15119; Mueller-Hinton agar pH 7.2; 32° C., 18 hr; 10^6 cells/ml; read-out: MIC
Summary of the method: (§1)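 Two-fold serial agar dilution in Mueller-Hinton agar (pH 7.2), inoculum 10^6 cells/ml, incubated 32° C for 18 hr. In vivo protection measured as PD50 in mice dosed intramuscularly just after bacterial challenge.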

S. aureus Smith = settings: Staphylococcus aureus; S. aureus Smith; Mueller-Hinton agar pH 7.2; 32° C., 18 hr; 10^6 cells/ml; read-out: MIC
Summary of the method: as §1

P. aeruginosa A9843A = settings: Pseudomonas aeruginosa, A9843A, 18 h, pH 7.2
Summary of the method: as §1

P. cepacia No. 651 = settings: Burkholderia cepacia, Mueller-Hinton agar pH 7.2, 32° C., 18 hr, 10^6 cells/ml
Experimental: (§2) Minimum inhibitory concentrations (MICs) of the present series of cephalosporins were determined against 32 strains of test organisms by two-fold serial agar dilution method in Mueller-Hinton agar. Geometric means of MICs were calculated against six groups of the test organisms which are classified as follows and summarized in Table 1.
(§3) Medium; MuellerHinton agar (pH = 7.2)
(§4) Incubation temperature: 32° C., 18 hr
(§5) Inoculum size; 10^6 cells/ml

X. maltophilia GN 12873 = settings: Stenotrophomonas maltophilia, GN12873, Mueller-Hinton agar pH 7.2, 32° C., 18 hr, 10^6 cells/ml
Experimental: as §2, §3, §4, §5

C. freundii GN 7391 = settings: Citrobacter freundii, GN7391, Mueller-Hinton agar pH 7.2, 32° C., 18 hr, 10^6 cells/ml
Experimental: as §2, §3, §4, §5

S. aureus 4-1015 (MRSA) = settings: Staphylococcus aureus, Mueller-Hinton agar pH 7.2, 32° C., 18 hr, 10^6 cells/ml
Experimental: as §2, §3, §4, §5

P. aeruginosa KKA 19 = settings: Pseudomonas aeruginosa, KKA19, Mueller-Hinton agar pH 7.2, 32° C., 18 hr, 10^6 cells/ml
Experimental: as §2, §3, §4, §5

P. mirabilis IFO-2849 = settings: Proteus mirabilis, IFO2849, Mueller-Hinton agar pH 7.2, 32° C., 18 hr, 10^6 cells/ml
Experimental: as §2, §3, §4, §5

S. epidermidis 11-1230 = settings: Staphylococcus epidermidis, 111230, Mueller-Hinton agar pH 7.2, 32° C., 18 hr, 10^6 cells/ml
Experimental: as §2, §3, §4, §5

E. faecium A24817 = settings: Enterococcus faecium, Mueller-Hinton agar pH 7.2, 32° C., 18 hr, 10^6 cells/ml
Experimental: as §2, §3, §4, §5

S. epidermidis 11-1168 = settings: Staphylococcus epidermidis, 111168, Mueller-Hinton agar pH 7.2, 32° C., 18 hr, 10^6 cells/ml
Experimental: as §2, §3, §4, §5

E. faecalis A9808 = settings: Enterococcus faecalis, Mueller-Hinton agar pH 7.2, 32° C., 18 hr, 10^6 cells/ml
Experimental: as §2, §3, §4, §5

P. vulgaris IPM-13 = settings: Proteus vulgaris, IPM13, Mueller-Hinton agar pH 7.2, 32° C., 18 hr, 10^6 cells/ml
Experimental: as §2, §3, §4, §5

M. luteus 1001 = settings: Micrococcus luteus, Mueller-Hinton agar pH 7.2, 32° C., 18 hr, 10^6 cells/ml
Experimental: as §2, §3, §4, §5

E. cloacae IPM-12 = settings: Enterobacter cloacae, IPM12, Mueller-Hinton agar pH 7.2, 32° C., 18 hr, 10^6 cells/ml
Experimental: as §2, §3, §4, §5

P. aeruginosa A20599 = settings: Pseudomonas aeruginosa, Mueller-Hinton agar pH 7.2, 32° C., 18 hr, 10^6 cells/ml
Experimental: as §2, §3, §4, §5

S. marcescens IPM-15 = settings: Serratia marcescens, IPM15, Mueller-Hinton agar pH 7.2, 32° C., 18 hr, 10^6 cells/ml
Experimental: as §2, §3, §4, §5

C. terrigena IFO 12685 = settings: Mueller-Hinton agar pH 7.2, 32° C., 18 hr, 10^6 cells/ml
Experimental: as §2, §3, §4, §5

S. aureus 209P = settings: Staphylococcus aureus
Experimental: as §2, §3, §4, §5

E. coli 255 = settings: Escherichia coli, Mueller-Hinton agar pH 7.2, 32° C., 18 hr, 10^6 cells/ml
Experimental: as §2, §3, §4, §5

S. marcescens IPM-16 = settings: Serratia marcescens, IPM16, Mueller-Hinton agar pH 7.2, 32° C., 18 hr, 10^6 cells/ml
Experimental: as §2, §3, §4, §5

S. aureus IPM-24 (MRSA) = settings: Staphylococcus aureus, Mueller-Hinton agar pH 7.2, 32° C., 18 hr, 10^6 cells/ml
Experimental: as §2, §3, §4, §5

P. cepacia A21213 = settings: Burkholderia cepacia, Mueller-Hinton agar pH 7.2, 32° C., 18 hr, 10^6 cells/ml
Experimental: as §2, §3, §4, §5

P. rettgeri IPM-14 = settings: Providencia rettgeri, IPM14, Mueller-Hinton agar pH 7.2, 32° C., 18 hr, 10^6 cells/ml
Experimental: as §2, §3, §4, §5

B. subtilis PCI 219 = settings: Bacillus subtilis, PCI219, Mueller-Hinton agar pH 7.2, 32° C., 18 hr, 10^6 cells/ml
Experimental: as §2, §3, §4, §5

K. pneumoniae PCI 602 = settings: Klebsiella pneumoniae, PCI602, Mueller-Hinton agar pH 7.2, 32° C., 18 hr, 10^6 cells/ml
Experimental: as §2, §3, §4, §5

P. aeruginosa IPM-8 = settings: Pseudomonas aeruginosa, IPM8, Mueller-Hinton agar pH 7.2, 32° C., 18 hr, 10^6 cells/ml
Experimental: as §2, §3, §4, §5

P. aeruginosa IPM-9 = settings: Pseudomonas aeruginosa, IPM9, Mueller-Hinton agar pH 7.2, 32° C., 18 hr, 10^6 cells/ml
Experimental: as §2, §3, §4, §5

M. morgani 1510/9 = settings: Mueller-Hinton agar pH 7.2, 32° C., 18 hr, 10^6 cells/ml
Experimental: as §2, §3, §4, §5

M. morgani 1510 = settings: Mueller-Hinton agar pH 7.2, 32° C., 18 hr, 10^6 cells/ml
Experimental: as §2, §3, §4, §5

X. maltophilia No. 661 = settings: Stenotrophomonas maltophilia, Mueller-Hinton agar pH 7.2, 32° C., 18 hr, 10^6 cells/ml
Experimental: as §2, §3, §4, §5

SMILES	MIC (E. coli Juhl A15119)	MIC (S. aureus Smith)	MIC (P. aeruginosa A9843A)	MIC (P. cepacia No. 651)	MIC (X. maltophilia GN 12873)	MIC (C. freundii GN 7391)	MIC (S. aureus 4-1015 (MRSA))	MIC (P. aeruginosa KKA 19)	MIC (P. mirabilis IFO-2849)	MIC (S. epidermidis 11-1230)	MIC (E. faecium A24817)	MIC (S. epidermidis 11-1168)	MIC (E. faecalis A9808)	MIC (P. vulgaris IPM-13)	MIC (M. luteus 1001)	MIC (E. cloacae IPM-12)	MIC (P. aeruginosa A20599)	MIC (S. marcescens IPM-15)	MIC (C. terrigena IFO 12685)	MIC (E. coli 255)	further results
Nc1nc(/C(=N/O)C(=O)NC2C(=O)N3C(C(=O)O)=C(/C=C/Cn4cnc5cc(O)c(O)cc54)CS[C@H]23)cs1 (stereo partly shown) [Ir, 7-[(Z)-2-(2-Aminothiazol-4-yl)-2-hydroxyiminoacetamido]-3-[(E)-3-(5,6-dihydroxybenzimidazol-1-yl)-1-propen-1-yl]-3-cephem-4-carboxylic acid]	0.4 mg/L (≈ 0.717 µM)	1.6 mg/L (≈ 2.87 µM)	6.3 mg/L (≈ 11.3 µM)	> 100 mg/L	> 100 mg/L	50 mg/L (≈ 89.7 µM)	12.5 mg/L (≈ 22.4 µM)	12.5 mg/L (≈ 22.4 µM)	0.8 mg/L (≈ 1.43 µM)	12.5 mg/L (≈ 22.4 µM)	> 100 mg/L	12.5 mg/L (≈ 22.4 µM)	12.5 mg/L (≈ 22.4 µM)	> 100 mg/L	0.8 mg/L (≈ 1.43 µM)	> 100 mg/L	12.5 mg/L (≈ 22.4 µM)	100 mg/L (≈ 179 µM)	3.1 mg/L (≈ 5.56 µM)	0.8 mg/L (≈ 1.43 µM)	MIC (S. aureus 209P; 209P, 18 h, pH 7.2): 3.1 mg/L (≈ 5.56 µM); MIC (S. marcescens IPM-16): > 100 mg/L; MIC (S. aureus IPM-24 (MRSA)): 100 mg/L (≈ 179 µM); MIC (P. cepacia A21213): > 100 mg/L; MIC (P. rettgeri IPM-14): 3.1 mg/L (≈ 5.56 µM); MIC (B. subtilis PCI 219): 1.6 mg/L (≈ 2.87 µM); MIC (K. pneumoniae PCI 602): 0.1 mg/L (≈ 0.179 µM); MIC (P. aeruginosa IPM-8): 3.1 mg/L (≈ 5.56 µM); MIC (P. aeruginosa IPM-9): > 100 mg/L; MIC (M. morgani 1510/9): 0.8 mg/L (≈ 1.43 µM); MIC (M. morgani 1510): 25 mg/L (≈ 44.8 µM); MIC (X. maltophilia No. 661): > 100 mg/L
Nc1nc(/C(=N/O)C(=O)NC2C(=O)N3C(C(=O)O)=C(/C=C/Cn4ccc5cc(=O)c(O)cc-5c4)CS[C@H]23)cs1 (stereo partly shown) [Is, 7-[(Z)-2-(2-Aminothiazol-4-yl)-2-hydroxyiminoacetamido]-3-[(E)-3-(2,6-dihydro-7-hydroxy-6-oxo-isoquinolin-2-yl)-1-propen-1-yl]-3-cephem-4-carboxylic acid]	0.2 mg/L (≈ 0.352 µM)	0.8 mg/L (≈ 1.41 µM)	> 100 mg/L	> 100 mg/L	> 100 mg/L	> 100 mg/L	3.1 mg/L (≈ 5.45 µM)	> 100 mg/L	0.4 mg/L (≈ 0.703 µM)	3.1 mg/L (≈ 5.45 µM)	100 mg/L (≈ 176 µM)	6.3 mg/L (≈ 11.1 µM)	6.3 mg/L (≈ 11.1 µM)	> 100 mg/L	0.4 mg/L (≈ 0.703 µM)	> 100 mg/L	> 100 mg/L	> 100 mg/L	1.6 mg/L (≈ 2.81 µM)	0.4 mg/L (≈ 0.703 µM)	MIC (S. aureus 209P; S. aureus 209P, Mueller-Hinton agar pH 7.2, 32° C., 18 hr, 10^6 cells/ml, read-out: MIC): 0.8 mg/L (≈ 1.41 µM); MIC (S. marcescens IPM-16): > 100 mg/L; MIC (S. aureus IPM-24 (MRSA)): 12.5 mg/L (≈ 22 µM); MIC (P. cepacia A21213): > 100 mg/L; MIC (P. rettgeri IPM-14): 1.6 mg/L (≈ 2.81 µM); MIC (B. subtilis PCI 219): 0.8 mg/L (≈ 1.41 µM); MIC (K. pneumoniae PCI 602): 0.1 mg/L (≈ 0.176 µM); MIC (P. aeruginosa IPM-8): > 100 mg/L; MIC (P. aeruginosa IPM-9): > 100 mg/L; MIC (M. morgani 1510/9): 0.2 mg/L (≈ 0.352 µM); MIC (M. morgani 1510): 12.5 mg/L (≈ 22 µM); MIC (X. maltophilia No. 661): > 100 mg/L
